Converted amounts (≈) assume the structure as drawn. The source made the active and inactive calls. No cut-off for these calls is given here.

Assay [1] deals with Fusarium oxysporum. Description: Antifungal activity against Fusarium oxysporum NCIM 1332 assessed as growth inhibition by agar dilution method. It is filed as functional.
A further assay concerns Candida albicans. Kind of assay: Antifungal activity against Candida albicans NCIM 3471 assessed as growth inhibition by agar dilution method. It counts as functional.
In assay [2] the test system is Cryptococcus neoformans. Description: Antifungal activity against Cryptococcus neoformans NCIM 576 assessed as growth inhibition by agar dilution method. It counts as functional.
In assay [3] the test system is Aspergillus niger. Description: Antifungal activity against Aspergillus niger NCIM 1196 assessed as growth inhibition by agar dilution method. It counts as functional.
Assay [4] deals with Aspergillus flavus. Description: Antifungal activity against Aspergillus flavus NCIM 539 assessed as growth inhibition by agar dilution method. It counts as functional.
Assay [5] concerns Aspergillus niger. Description: Antifungal activity against Aspergillus niger NCIM 1196 assessed as growth inhibition up to 200 ug/mL by agar dilution method. It counts as functional, organism-based.
For assay [6], the system named is Fusarium oxysporum. Kind of assay: Antifungal activity against Fusarium oxysporum NCIM 1332 assessed as growth inhibition up to 200 ug/mL by agar dilution method. It is filed as functional, organism-based.
In assay [7] the test system is Cryptococcus neoformans. Description: Antifungal activity against Cryptococcus neoformans NCIM 576 assessed as growth inhibition up to 200 ug/mL by agar dilution method. It is filed as functional, organism-based.
For assay [8], the system named is Aspergillus flavus. Kind of assay: Antifungal activity against Aspergillus flavus NCIM 539 assessed as growth inhibition up to 200 ug/mL by agar dilution method. It is filed as functional, organism-based.

Consider `CS(=O)(=O)N1CCC(n2cc(CN3CCc4sccc4C3)nn2)CC1`, for which the MIC in the assay on Fusarium oxysporum [1] was found to be 30 µg/mL (≈ 78.6 µM); in the assay with Candida albicans it was 50 µg/mL (≈ 131 µM); in the assay on Cryptococcus neoformans [2], 25 µg/mL (≈ 65.5 µM); with Aspergillus niger [3], 40 µg/mL (≈ 105 µM); in the assay on Aspergillus flavus [4], 40 µg/mL (≈ 105 µM).
For the compound `CCN1CCC(n2cc(CN3CCc4sccc4C3)nn2)CC1`, the MIC turned out to be 100 µg/mL (≈ 302 µM) in the assay with Fusarium oxysporum [1]; 90 µg/mL (≈ 272 µM) with Candida albicans; 150 µg/mL (≈ 453 µM) in the assay on Cryptococcus neoformans [2]; 47.5 µg/mL (≈ 143 µM) with Aspergillus niger [3]; 35 µg/mL (≈ 106 µM) in the assay on Aspergillus flavus [4].
For `O=C(c1ccc(Cl)cc1)N1CCC(n2cc(CN3CCc4sccc4C3)nn2)CC1`, in that order: 40 µg/mL (≈ 90.5 µM), 45 µg/mL (≈ 102 µM), 45 µg/mL (≈ 102 µM), 42.5 µg/mL (≈ 96.2 µM) and 40 µg/mL (≈ 90.5 µM).
As for `O=C(c1ccccc1)N1CCC(n2cc(CN3CCc4sccc4C3)nn2)CC1`, the results for the MIC in the assay on Candida albicans, with Cryptococcus neoformans [2] and with Aspergillus flavus [4] were 90 µg/mL (≈ 221 µM), 100 µg/mL (≈ 245 µM) and 65 µg/mL (≈ 159 µM), respectively. The “growth inhibition (GI)” value in the assay on Aspergillus niger [5] and in the assay on Fusarium oxysporum [6] was “inactive” each time.
For the compound `Cc1ccc(S(=O)(=O)N2CCC(n3cc(CN4CCc5sccc5C4)nn3)CC2)cc1`, the MIC in the assay on Fusarium oxysporum [1] is 70 µg/mL (≈ 153 µM); in the assay with Candida albicans it was 60 µg/mL (≈ 131 µM); with Cryptococcus neoformans [2], 40 µg/mL (≈ 87.4 µM); with Aspergillus niger [3], 37.5 µg/mL (≈ 81.9 µM); in the assay with Aspergillus flavus [4] it was 45 µg/mL (≈ 98.3 µM).
Regarding `CCC(=O)N1CCC(n2cc(CN3CCc4sccc4C3)nn2)CC1`, the MIC was found to be 60 µg/mL (≈ 167 µM) with Fusarium oxysporum [1], 50 µg/mL (≈ 139 µM) in the assay on Candida albicans and 30 µg/mL (≈ 83.4 µM) in the assay with Aspergillus flavus [4]. In addition, the “growth inhibition (GI)” value in the assay with Cryptococcus neoformans [7] and with Aspergillus niger [5] was “inactive” throughout.
On to `c1ccc(CN2CCC(n3cc(CN4CCc5sccc5C4)nn3)CC2)cc1`, for which the MIC in the assay on Fusarium oxysporum [1] came to 75 µg/mL (≈ 191 µM); in the assay with Candida albicans, 50 µg/mL (≈ 127 µM); in the assay on Cryptococcus neoformans [2] it was 90 µg/mL (≈ 229 µM); in the assay with Aspergillus niger [3], 100 µg/mL (≈ 254 µM); in the assay with Aspergillus flavus [4] it was 60 µg/mL (≈ 152 µM).
Take `CC(C)C(=O)N1CCC(n2cc(CN3CCc4sccc4C3)nn2)CC1`: the MIC was 100 µg/mL (≈ 268 µM) with Fusarium oxysporum [1]; 100 µg/mL (≈ 268 µM) with Candida albicans; 150 µg/mL (≈ 402 µM) with Cryptococcus neoformans [2]; 47.5 µg/mL (≈ 127 µM) in the assay on Aspergillus niger [3]; 35 µg/mL (≈ 93.7 µM) in the assay on Aspergillus flavus [4].
As for `CN1CCC(n2cc(CN3CCc4sccc4C3)nn2)CC1`, the MIC came out at 70 µg/mL (≈ 220 µM) in the assay on Fusarium oxysporum [1], 40 µg/mL (≈ 126 µM) with Candida albicans and 40 µg/mL (≈ 126 µM) with Aspergillus flavus [4]. Besides, the “growth inhibition (GI)” value with Cryptococcus neoformans [7] and with Aspergillus niger [5] was “inactive” each time.
`CC(=O)N1CCC(n2cc(CN3CCc4sccc4C3)nn2)CC1`: the MIC is 45 µg/mL (≈ 130 µM) with Fusarium oxysporum [1], 40 µg/mL (≈ 116 µM) in the assay on Candida albicans and 100 µg/mL (≈ 289 µM) in the assay on Aspergillus niger [3]. Moreover, the “growth inhibition (GI)” value in the assay on Cryptococcus neoformans [7] and in the assay with Aspergillus flavus [8] was “inactive” each time.
On to `c1cc2c(s1)CCN(Cc1cn(C3CCNCC3)nn1)C2`, for which the minimum inhibitory concentration (MIC) in the assay with Fusarium oxysporum [1] is 90 µg/mL (≈ 297 µM); with Candida albicans it was 50 µg/mL (≈ 165 µM); in the assay with Cryptococcus neoformans [2] it was 100 µg/mL (≈ 330 µM); in the assay on Aspergillus niger [3], 100 µg/mL (≈ 330 µM); in the assay on Aspergillus flavus [4], 60 µg/mL (≈ 198 µM).
In the case of `Clc1ccc(COC(Cn2ccnc2)c2ccc(Cl)cc2Cl)c(Cl)c1` (stereo not given) [MICONAZOLE], the minimum inhibitory concentration (MIC) worked out at 25 µg/mL (≈ 60.1 µM) in the assay on Fusarium oxysporum [1]; 25 µg/mL (≈ 60.1 µM) with Candida albicans; 25 µg/mL (≈ 60.1 µM) in the assay with Cryptococcus neoformans [2]; 12.5 µg/mL (≈ 30 µM) in the assay on Aspergillus niger [3]; 12.5 µg/mL (≈ 30 µM) in the assay with Aspergillus flavus [4].

Values taken from ChEMBL document CHEMBL2401616, “A novel amalgamation of 1,2,3-triazoles, piperidines and thieno pyridine rings and evaluation of their antifungal activity” (2013).
